Entries after “also recorded” stand apart in the source; their conditions may differ.

Here are results for 3 compounds from patent US20150133493A1, “COUMARIN-BASED COMPOUNDS FOR THE TREATMENT OF ALZHEIMER'S DISEASE AND CANCER” (Sloan-Kettering Institute for Cancer Research, priority 2008, published 2015).

Test [1] deals with T1, γ-secretase (Homo sapiens, UniProt P49768).
T1 construct: endogenous in cells
Kind of test: Inhibition kinetic analysis in the in vitro γ-secretase activity assay. Format: biochemical. The note with it: APP-transmembrane domain substrate. On the procedure: FIG. 4. Kinetic analysis of allosteric GSIs and evaluation of their effect on the γ-secretase active site architecture. (a) Kinetic analysis of CS1 was performed using our modified version of a previously reported in vitro γ-secretase activity assay. The inhibition kinetics were analyzed by using a non-linear curve fit with the Michaelis-Menten equation. Upper right inset: we replotted slopes against the inhibitor concentrations after performing double reciprocal conversion. (b) Schematic representation of the allosteric binding of the di-coumarin compounds to γ-secretase. This binding ultimately causes an alteration at the active site of γ-secretase. Black rectangle represents the coumarin-dimer compound. (c) The binding of L458 to the active site of γ-secretase and its interaction at various subpockets within the enzyme. […]
Cell membranes and solubilized γ-secretase were prepared as described previously (36). […] Cleaved product was detected using ruthenylated antibodies that recognize specific APP cleavage sites (Aβ31-38*, G2-10*, or G2-11* antibody for Aβ38, Aβ40, or Aβ42 respectively). The Km and Vmax in the presence and absence of γ-secretase inhibitors were analyzed by non-linear curve fit using the software SigmaPlot 8.0 with the Michaelis-Menten equation (v=Vm [S]/(Km+[S]; v: initial rate; Vm: maximum velocity; Km: the Michaelis-Menten constant, S: substrate).

The target of the next test is T2, γ-secretase active site (Homo sapiens, UniProt P49768).
T2 construct: endogenous in cells; host or cells: HeLa membrane
Nature of the test: Photolabeling of the γ-secretase active site (PS1-NTF) in HeLa membrane with probes L646, GY4, JC8, L505. Type of test: binding. The following applies: L458 and Compound E at 2 μM, CS-1 up to 100 μM. On the procedure: FIG. 4. Kinetic analysis of allosteric GSIs and evaluation of their effect on the γ-secretase active site architecture. (a) Kinetic analysis of CS1 was performed using our modified version of a previously reported in vitro γ-secretase activity assay. The inhibition kinetics were analyzed by using a non-linear curve fit with the Michaelis-Menten equation. Upper right inset: we replotted slopes against the inhibitor concentrations after performing double reciprocal conversion. (b) Schematic representation of the allosteric binding of the di-coumarin compounds to γ-secretase. This binding ultimately causes an alteration at the active site of γ-secretase. Black rectangle represents the coumarin-dimer compound. (c) The binding of L458 to the active site of γ-secretase and its interaction at various subpockets within the enzyme. (d) Chemical structure of the four photoaffinity probes utilized in the characterization of CS-1 effect on active site architecture. Hydroxyethylamine and benzophenone moieties are marked by blue and red, respectively. (e) Evaluation of CS-1 effect on the photolabeling of four probes. […] (f) Evaluation of CS-2 effect on the active site photolabeling by L505 and GY4. (g) Effect of Compound E on active site photolabling. […] Blotting was performed for PS1-NTF. The photolabeling blots are representative and were performed in triplicate.
We hypothesized that the allosteric binding of the di-coumarin compounds alters the conformation of the active site of γ-secretase and thereby preferentially affects the Aβ42 site cleavage (FIG. 4b). This raised the technical issue of how to probe the contours of the enzymatic active site. Although the structure of γ-secretase has been determined by cryoelectron microscopy (23), the resolution attained is not sufficient to investigate subtle changes within the active site. Consequently, we developed a series of active-site directed inhibitors that incorporate a photoreactive benzophenone entity into varied positions. Using these photoreactive probes, we assessed the effect of the di-coumarin inhibitor binding on the active site of γ-secretase. Since the efficiency of photoinsertion depends on the orientation of the probe and the proximity of residues within the active site, conformational change of the active site can alter the orientation of the probe and contact residues and lead to altered cross-linking efficiencies. Therefore, multiple photoactivatable, active-site directed GSIs will provide a practical approach to evaluate the changes within the active site following allosteric di-coumarin binding.
L458 contains a hydroxyethylamine transition-state isostere that mimics the tetrahedral intermediate of aspartyl proteases and this moiety hydrogen bonds with the catalytic aspartate residues of γ-secretase (20). According to the nomenclature of Schechter and Berger (24), L458 contains the P2, P1, P1′, P2′ and P3′ residues that putatively bind to the S2, S1, S1′, S2′ and S3′ subsites, respectively, within the active site of γ-secretase (FIG. 4c). We have developed a series of biotinylated, photoactivatable inhibitors based on the core structure of L458 that allow us to probe the sub-pockets of the γ-secretase active site (3, 25-26). These inhibitors all have an individual benzophenone group incorporated into L458 at either the P2, P1, P1′, or P3′ position and are referred to as L646, GY4, JC8 and L505 (FIG. 4d). Each of these inhibitors interacts and labels the S2, S1, S1′, and S3′ subsites, respectively, within the γ-secretase complex (FIG. 4c-d).
HeLa membrane was incubated with CHAPSO detergent and photoaffinity probe in the presence or absence of excess L458 or CS-1. Labeled presenilin was isolated using streptavidin beads, separated by SDS-PAGE and subsequently western blotted using anti-PS1-NTF antibodies. Again, presenilin is believed to contain the active site of γ-secretase, therefore we examined PS1 photolabeling. […]

For test [2], the target named is T1, γ-secretase. The following applies: reference (22); cited from earlier work.
The test system of test [3] is N2a mouse neuroblastoma cells that stably express Swedish-mutated APP. Nature of the test: Cell-based assay of secreted Aβ42, Aβ40, Aβ38 in APPsw-N2A cells. The note with it: 24 hrs, in words, CS-1 up to 30 μM. Here is the method: FIG. 3. Cellular evaluation of the coumarin-dimer CS-1 and its selective inhibition of Aβ42. Compounds were incubated with the APPsw-N2A mouse neuroblastoma cells for 24 hours and media were analyzed by biotinylated 4G8 and ruthenylated antibodies specific for each respective cleavage product. […] (d) Immunoprecipitation mass spectrometry analysis of CS-1 effect on secreted β-amyloid species. Aβ peptides were immunoprecipitated using 4G8 antibody and isolated with Protein G+/A agarose beads. Samples were analyzed by MALDI-MS. Samples shown are representative and each data point was performed in triplicate. (e) Cell-based Notch cleavage assay. HEK-293 cells were transfected with ΔE Notch construct and then Compound E and CS-1 were evaluated for their ability to inhibit γ-secretase-mediated Notch intracellular domain production. […] Western blot is representative and was performed in triplicate. (f) Effect of CS-1 on AICD production. N2A APPsw cell membrane was prepared and incubated with the indicated concentrations of CS-1 at 37° C. for 2 hours. The generated AICD and APP-CTFs were detected by Western Blotting using APPc antibody. Western blot is representative and was performed in triplicate.
We next set out to determine if the selective inhibition of Aβ42 was maintained in a cell-based system for APP processing. First, we compared our lead compound CS-1 (FIG. 3a) to Compound E (FIG. 3b) and the GSM compound indomethacin (FIG. 3c). N2a mouse neuroblastoma cells that stably express Swedish-mutated APP substrate were treated with the indicated compounds for 24 hrs at 37° C. Following 24 hr incubation period, the medium was collected from the cells and assayed for secreted Aβ42, Aβ40, and Aβ38. […] The result for indomethacin mirrored those findings by Kukar et al. whereby a different cell-based system was utilized (17), further validating our assay system for analysis of these Aβ species. […] This may reflect subtle variations between the cellular and in vitro conformations of γ-secretase. Nevertheless, the cell-based studies confirmed that CS-1 maintains a preference for inhibition of the γ-secretase mediated production of Aβ42 over Aβ40 or Aβ38, which is distinct to previously reported GSMs (17) and inhibitors (14-15, 18).
(§1) Cell membranes and solubilized γ-secretase were prepared as described previously (36). The in vitro and cell γ-secretase assays detecting either Aβ38, Aβ40, or Aβ42 cleavage were performed similar as previously described (21, 36). Cleaved product was detected using ruthenylated antibodies that recognize specific APP cleavage sites (Aβ31-38*, G2-10*, or G2-11* antibody for Aβ38, Aβ40, or Aβ42 respectively). The Km and Vmax in the presence and absence of γ-secretase inhibitors were analyzed by non-linear curve fit using the software SigmaPlot 8.0 with the Michaelis-Menten equation (v=Vm [S]/(Km+[S]; v: initial rate; Vm: maximum velocity; Km: the Michaelis-Menten constant, S: substrate).

Test [4] concerns the target T1, γ-secretase. Kind of test: In vitro γ-secretase activity assay, Aβ40 production (ECL). Format: biochemical. Here is the method: (§2) FIG. 2. In vitro characterization of coumarin-dimer allosteric GSIs against various γ-secretase cleavage products. The potency of 7 unique coumarin-based γ-secretase inhibitors were evaluated for efficacy against γ-secretase-mediated production of Aβ40, Aβ42, Aβ38, and Notch. Additionally, the pan-GSI Compound E was also examined in these assays. The IC50 values were calculated from the dose response curves using a non-linear regression analysis in Prism software. IC50 values are presented with standard deviation (n=3 for each data point). The three β-amyloid-detection in vitro assays were modified from our previously reported assay (21) using a biotinylated substrate that eliminated the requirement of anti-β-amyloid biotinylated antibody. Ruthenylated antibodies that detected the -40, -42, or -38 cleavage site were incorporated to detect proteolysis indicative of γ-secretase activity. In vitro Notch assay utilized a recombinant transmembrane portion of the Notch peptide and anti-Notch1 SM320 antibody in conjunction with ruthenylated anti-rabbit secondary antibodies. Electrochemiluminescence was quantified on an Analyzer (BioVeris). The selectivity ratio for Aβ42 inhibition over Aβ40 and Notch are indicated in the two far right columns.
The assay protocol employed was a modified version of that described in Li et al., 2000, Proc. Nat'l Acad. Sci. USA 97:6183-643, incorporated herein by reference. Briefly, recombinant peptide substrate was incubated with γ-secretase (40 μg/ml) in the presence or absence of test compound. The reaction mixture contained 0.25% CHAPSO, 0.1 μg/μl BSA, protease inhibitor, 50 mM PIPES, pH 7.0, 5 mM MgCl2, 5 mM CaCl2 and 150 mM KCl. The reaction was incubated for 2.5 hr at 37° C. and stopped by adding RIPA buffer (150 mM NaCl, 1.0% NP-40, 0.5% sodium deoxycholate, 0.1% SDS, 50 mM Tris HCl, pH 8.0). The products were detected with various antibody combinations using electrochemiluminescence (ECL) technology as previously described in Li et al., 2000, Proc. Nat'l Acad. Sci. USA 97:6183-643; Lai et al., 2003, J. Biol. Chem. 278: 22475-22481; and Yin et al., 2007, J. Biol. Chem. 282:23639-23644. The amount of product was determined using synthetic peptide or recombinant standards.
as §1

The target of test [5] is T1, γ-secretase. Nature of the test: In vitro γ-secretase activity assay, Aβ42 production (ECL). The note with it: in vitro inhibition of γ-secretase activity that generates Aβ42; 2.5 hr at 37° C., ECL detection. Type of test: biochemical. On the procedure:
as §2, with “The potency of 7 unique coumarin-based γ-secretase inhibitors were evaluated for efficacy against γ-secretase-mediated production of Aβ40, Aβ42, Aβ38, and Notch. Additionally, the pan-GSI Compound E was also examined in these assays.” left out, “IC50 values are presented with standard deviation (n=3 for each data point).” left out, “(BioVeris).” for “(BioVeris). The selectivity ratio for Aβ42 inhibition over Aβ40 and Notch are indicated in the two far right columns.”
Briefly, recombinant peptide substrate was incubated with γ-secretase (40 μg/ml) in the presence or absence of test compound. […] The reaction was incubated for 2.5 hr at 37° C. and stopped by adding RIPA buffer (150 mM NaCl, 1.0% NP-40, 0.5% sodium deoxycholate, 0.1% SDS, 50 mM Tris HCl, pH 8.0). […] The amount of product was determined using synthetic peptide or recombinant standards.
as §1

Test [6] deals with cells stably transfected with APP. Kind of test: Cell-based assay for production of Aβ38, Aβ40 and Aβ42 peptides (Example 29, FIG. 1). The note with it: increasing concentrations of compound. Here is the method:
The following cell-based assay can be used for assessing inhibitory activity of test compounds on γ-secretase activity on APP expressed in stably transfected cells. Cells such as HEK239 or N2A cells that stably express APP are incubated 24-48 hr. in medium to which is added γ-secretase with or without test compound. The conditioned medium is collected. Secreted Aβ peptides are detected by electrochemiluminescence (ECL) technology as previously described, for example, in Li et al., 2000, Proc. Nat'l Acad. Sci. USA 97:6183-643; Lai et al., 2003, J. Biol. Chem. 278: 22475-22481; and Yin et al., 2007, J. Biol. Chem. 282:23639-23644. Concentration of Aβ peptides can be calculated from standard curves that are generated using synthetic peptides using the ECL assay.
Results of a cell-based assay are provided in FIG. 1 in which cells stably transfected with APP were incubated in medium containing γ-secretase activity and the indicated amounts of compound 37.

In the case of `CC(C)C[C@H](NC(=O)[C@H](Cc1ccccc1)C[C@@H](O)[C@H](Cc1ccccc1)NC(=O)OC(C)(C)C)C(=O)N[C@@H](Cc1ccccc1)C(N)=O` [L-685,458], on γ-secretase [1], the “mode of inhibition against APP-TM substrate” value is given as “competitive inhibitor”. Also, at γ-secretase active site, the “effect on JC-8 photolabeling of PS1-NTF (S1′ subsite)” value is “completely blocked” and the “effect on L646 photolabeling of PS1-NTF (S2 subsite)” value is “completely blocked”. Also, at γ-secretase active site (CS-2 at 100 μM), the “effect on GY-4 photolabeling of PS1-NTF (S1 subsite)” value is given as “completely blocked” and the “effect on L505 photolabeling of PS1-NTF (S3′ subsite)” value is “completely blocked”. On γ-secretase [2], the “mode of inhibition when the C100 substrate is used” value was “non-competitive inhibitor”.

Take `COc1ccc2c(c1)c(CC(=O)O)c(C)n2C(=O)c1ccc(Cl)cc1` [indomethacin]: in test [3], the “effect on secreted Aβ38 production” value is “potently increases; also recorded: significantly enhanced”, the “effect on secreted Aβ40 production” value is “little effect; also recorded: no effect” and the “effect on secreted Aβ42 production” value was “reduces; also recorded: abrogated”.

Consider `O=c1oc2ccccc2c(O)c1C(c1cc(F)c(F)c(F)c1)c1c(O)c2ccccc2oc1=O` [Compound 37], for which, on γ-secretase [4] (in vitro inhibition of γ-secretase activity that generates Aβ40, 2.5 hr at 37° C., ECL detection), the IC50 was determined as 0.6 µM. Also, at γ-secretase [4] (ratio of IC50 for Aβ40 to IC50 for Aβ42), the Aβ40/Aβ42 ratio was 3.0. Besides, the IC50 on γ-secretase [5] was found to be 0.2 µM. Also, in test [6], the “amount of Aβ38 secreted from the cells” value is recorded as “remain relatively constant”, the “amount of Aβ40 secreted from the cells” value is given as “remain relatively constant” and the “amount of Aβ42 secreted from the cells” value was “decrease”.
